Measurements as given in ChEMBL document CHEMBL3877319, “Synthesis of Ofornine mimics from natural product l-vasicine as anti-hypertensive agents” (Bioorg Med Chem, 2017).

Tests used:
Format in all cases: functional
Rattus norvegicus [1] = assay: Anti-hypertensive activity in Wistar rat assessed as systolic blood pressure at 10 mg/kg, iv after 30 mins (reference value: 110 to 124.6 mmHg)
Rattus norvegicus [2] = assay: Anti-hypertensive activity in Wistar rat assessed as systolic blood pressure at 10 mg/kg, iv after 5 mins (reference value: 110 to 124.6 mmHg)
Rattus norvegicus [3] = assay: Anti-hypertensive activity in Wistar rat assessed as diastolic blood pressure at 10 mg/kg, iv after 60 mins (reference value: 77.15 to 94.4 mmHg)
Rattus norvegicus [4] = assay: Anti-hypertensive activity in Wistar rat assessed as diastolic blood pressure at 10 mg/kg, iv after 5 mins (reference value: 77.15 to 94.4 mmHg)
Rattus norvegicus [5] = assay: Anti-hypertensive activity in Wistar rat assessed as diastolic blood pressure at 10 mg/kg, iv after 30 mins (reference value: 77.15 to 94.4 mmHg)
Rattus norvegicus [6] = assay: Anti-hypertensive activity in Wistar rat assessed as systolic blood pressure at 10 mg/kg, iv after 15 mins (reference value: 110 to 124.6 mmHg)
Rattus norvegicus [7] = assay: Anti-hypertensive activity in Wistar rat assessed as systolic blood pressure at 10 mg/kg, iv after 150 mins (reference value: 110 to 124.6 mmHg)
Rattus norvegicus [8] = assay: Anti-hypertensive activity in Wistar rat assessed as systolic blood pressure at 10 mg/kg, iv after 60 mins (reference value: 110 to 124.6 mmHg)
Rattus norvegicus [9] = assay: Anti-hypertensive activity in Wistar rat assessed as systolic blood pressure at 10 mg/kg, iv after 120 mins (reference value: 110 to 124.6 mmHg)
Rattus norvegicus [10] = assay: Anti-hypertensive activity in Wistar rat assessed as diastolic blood pressure at 10 mg/kg, iv after 150 mins (reference value: 77.15 to 94.4 mmHg)
Rattus norvegicus [11] = assay: Anti-hypertensive activity in Wistar rat assessed as diastolic blood pressure at 10 mg/kg, iv after 180 mins (reference value: 77.15 to 94.4 mmHg)
Rattus norvegicus [12] = assay: Anti-hypertensive activity in Wistar rat assessed as diastolic blood pressure at 10 mg/kg, iv after 15 mins (reference value: 77.15 to 94.4 mmHg)
Rattus norvegicus [13] = assay: Anti-hypertensive activity in Wistar rat assessed as diastolic blood pressure at 10 mg/kg, iv after 120 mins (reference value: 77.15 to 94.4 mmHg)
Rattus norvegicus [14] = assay: Anti-hypertensive activity in Wistar rat assessed as systolic blood pressure at 10 mg/kg, iv after 180 mins (reference value: 110 to 124.6 mmHg)

| Compound | Activity (Rattus norvegicus [1]) [mmHg] | Activity (Rattus norvegicus [2]) [mmHg] | Activity (Rattus norvegicus [3]) [mmHg] | Activity (Rattus norvegicus [4]) [mmHg] | Activity (Rattus norvegicus [5]) [mmHg] | Activity (Rattus norvegicus [6]) [mmHg] | Activity (Rattus norvegicus [7]) [mmHg] | Activity (Rattus norvegicus [8]) [mmHg] | Activity (Rattus norvegicus [9]) [mmHg] | Activity (Rattus norvegicus [10]) [mmHg] | Activity (Rattus norvegicus [11]) [mmHg] | Activity (Rattus norvegicus [12]) [mmHg] | Activity (Rattus norvegicus [13]) [mmHg] | Activity (Rattus norvegicus [14]) [mmHg] |
| --- | --- | --- | --- | --- | --- | --- | --- | --- | --- | --- | --- | --- | --- | --- |
| O=C(c1ccccc1Nc1ccncc1)N1CC[C@@H](n2cc(-c3ccccc3)nn2)C1 | 100.7 | 85.3 | 72.2 | 58.7 | 70.2 | 94.3 | 120.8 | 109.8 | 116.2 | 80.15 | 86.75 | 65.5 | 80 | 121.2 |
| CCCc1cn([C@@H]2CCN(C(=O)c3ccccc3Nc3ccncc3)C2)nn1 | 118.8 | 82.7 | 83.7 | 44.5 | 78.5 | 86.8 | 119.9 | 114.8 | 118.1 | 81.5 | 84.5 | 53.4 | 82.7 | 118.8 |
